Measurements: US11911386B2, “Methods of treating B-cell proliferative disorder” (BeiGene Switzerland GmbH, priority 2022, dated 2024)
Where “and” joins values, the source holds several entries; their conditions need not be identical. Equal entries are not always repeated. Where two headings read alike, the source gives them in different places. Marks after values point to notes of the source that are not given here.

Columns and labels:
panel of 370 kinases = experiment: Kinome profiling at 100xIC50 (BTK) concentrations; type: biochemical; conditions: 100×IC50 (BTK) concentration
[1] = multiple doses of a moderate CYP3A inhibitor; cited from earlier work
[2] = Phase 1 DDI study: treatment-emergent adverse events; type: in vivo, human
Description: Safety was assessed by monitoring and recording of adverse events (AEs), serious adverse events (SAEs), clinical laboratory tests, physical examinations, and vital signs. […] A TEAE was defined as an AE that started during or after the first dose or started before the first dose and increased in severity after the first dose. AEs were classified based on MedDRA Version 24.0.
Safety and tolerability were assessed, when applicable, by incidence, severity, change from baseline values, and abnormal values for all relevant parameters such as AEs, laboratory parameters, vital signs, and physical examination.

[3] = Phase 2 (NCT04116437): recurrence and change in severity of ibrutinib/acalabrutinib intolerance events on zanubrutinib; type: in vivo, human
Description: The primary endpoints were the recurrence and the change in severity of ibrutinib and acalabrutinib intolerance events compared with corresponding treatment-emergent adverse events within each patient. In this document, the term “adverse event” refers to a “treatment-emergent adverse event” unless otherwise stated. Hereafter, the full “treatment-emergent adverse event” was not used.
Intolerance was defined as an unacceptable toxicity such that treatment should be discontinued per investigator opinion despite optimal supportive care.
If while on zanubrutinib a patient experienced the same adverse event that led to their intolerance to ibrutinib, the patient was said to experience a recurrence of an ibrutinib intolerant event. […] Otherwise, the severity was said to be the same. For acalabrutinib intolerant events, recurrence and change in severity were defined similarly.
Primary endpoint was the recurrence and change in severity of intolerance events per protocol.
The study design comprised two cohorts. […] Patients were not allowed to switch schedule during the study.

[4] = test system: relapsed/refractory CLL/SLL; conditions: for Duration of response events: death / Duration of response events: progressive disease / Duration of response: events: responders
[5] = IRC assessed, ITT, Table 15 data cut-off
[6] = IRC assessed, ITT, final analysis
[7] = IRC assessed, del(17p)/TP53 mutation, final analysis
[8] = investigator assessed, ITT, Table 15 data cut-off
[9] = investigator assessed, ITT, final analysis
[10] = investigator assessed, del(17p)/TP53 mutation, final analysis

C=CC(=O)N1CCC([C@@H]2CCNc3c(C(N)=O)c(-c4ccc(Oc5ccccc5)cc4)nn32)CC1 [zanubrutinib, (S)-7-(1-acryloylpiperidin-4-yl)-2-(4-phenoxyphenyl)-4,5,6,7-tetrahydropyrazolo[1,5-a]pyrimidine-3-carboxamide]
Off-target kinases inhibited (panel of 370 kinases): seven
Increase in zanubrutinib Cmax and AUC [1]: 2- to 3 fold and 2 to 3 fold
General disorders and administration site conditions TEAE ([2]; N = 13): 1 (7.7) n (%)
Overall TEAEs ([2]; N = 13): 1 (7.7) n (%)
Vessel puncture site hematoma TEAE ([2]; N = 13): 1 (7.7) n (%)
Tolerability ([2]; single 320 mg dose alone or with 300 mg rifabutin, healthy volunteers): well tolerated
Patients with acalabrutinib-intolerance event recurrence who discontinued zanubrutinib ([3]; 3 patients): 66.7%
Recurring acalabrutinib-intolerance events at lower severity ([3]; 3 recurring events): 33.3% and 33.0%
Recurring acalabrutinib-intolerance events at same severity ([3]; 3 recurring events): 66.6% and 66.7%
Grade 3 acalabrutinib-intolerance events that recurred ([3]; 4 grade 3 events): 25.0%
Patients without recurrence of acalabrutinib-intolerance events ([3]; 10 patients): 70.0%
Recurring grade 3 ibrutinib-intolerance events at lower severity ([3]; 13 events): 92.3%
Recurring grade 3 ibrutinib-intolerance events at same severity ([3]; 13 events): 7.7%
Acalabrutinib-intolerance events that did not recur ([3]; 18 events): 83.3%
Acalabrutinib-intolerance events that recurred: arthralgia ([3]; 18 events): 5.6%
Acalabrutinib-intolerance events that recurred: myalgia ([3]; 18 events): 11.1%
Patients with recurrent ibrutinib-intolerance event who discontinued zanubrutinib ([3]; 25 patients): 24.0%
Recurring ibrutinib-intolerance events at lower severity ([3]; 34 recurring events): 79.4%
Recurring ibrutinib-intolerance events at same severity ([3]; 34 recurring events): 20.6%
Grade 3 ibrutinib-intolerance events that recurred ([3]; 38 grade 3 events): 34.2%
Patients without recurrence of ibrutinib-intolerance event ([3]; 62 patients): 59.7%
Ibrutinib-intolerance events that did not recur ([3]; 115 events): 70.4%
Intolerance events that did not recur ([3]; 141 intolerance events): 68.1%
Patients with reoccurrence of previously intolerant adverse event(s) ([3]; all patients): 44.4%
Patients without any recurrence of intolerance event(s) ([3]; all patients (clinical study report cut-off)): 56.6%
Median time to first recurrence of ibrutinib-intolerance event ([3]; in vivo): 61 days
24-month event-free rate, duration of response (95% CI) ([4]; IRC assessed): 77.4 (71.0-82.5) %
Median duration of response (95% CI) ([4]; IRC assessed): had not yet been reached
Best response CR or CRi [4, 5]: 13 (4.0) n (%)
Best response PD [4, 5]: 3 (0.9) n (%)
Best response PR or nPR [4, 5]: 250 (76.5) n (%)
Best response PR-L [4, 5]: 33 (10.1) n (%)
Best response SD [4, 5]: 20 (6.1) n (%)
Discontinue prior to first assessment, NA or NE [4, 5]: 8 (2.4) n (%)
ORR (95% CI) [4, 5]: 80.4† (75.7, 84.6) %
Best response CR or CRi [4, 6]: 22 (6.7) n (%)
Best response PD [4, 6]: 3 (0.9) n (%)
Best response PR or nPR [4, 6]: 260 (79.5) n (%)
Best response PR-L [4, 6]: 18 (5.5) n (%)
Best response SD [4, 6]: 16 (4.9) n (%)
Discontinue prior to first assessment, NA or NE [4, 6]: 8 (2.4) n (%)
ORR [4, 6]: 86.2%
Best response CR or CRi [4, 7]: 6 (8.0) n (%)
Best response PD [4, 7]: 1 (1.3) n (%)
Best response PR or nPR [4, 7]: 58 (77.3) n (%)
Best response PR-L [4, 7]: 4 (5.3) n (%)
Best response SD [4, 7]: 3 (4.0) n (%)
Discontinue prior to first assessment, NA or NE [4, 7]: 3 (4.0) n (%)
ORR [4, 7]: 85.3%
Median duration of response (95% CI) ([4]; IRC assessed, listed as Zanubrutinib): NE (31.3, NE)
Duration of response events: death ([4]; IRC assessed): 20 (7.1) n (%)
Duration of response events: progressive disease ([4]; IRC assessed): 40 (14.2) n (%)
Duration of response: events ([4]; IRC assessed): 60 (21.3) n (%)
Treatment discontinuation due to progressive disease ([4]; ITT): 7.3%
PFS HR (95% CI), zanubrutinib over ibrutinib ([4]; accounting for drug interruption (ITT), independent review): 0.71 (0.53, 0.95)
PFS HR (95% CI), zanubrutinib over ibrutinib ([4]; accounting for drug interruption (ITT), investigator assessment): 0.71 (0.52, 0.96)
PFS HR (95% CI), zanubrutinib over ibrutinib ([4]; alternative censoring rules (ITT), independent review): 0.63 (0.48, 0.84)
PFS HR (95% CI), zanubrutinib over ibrutinib ([4]; alternative censoring rules (ITT), investigator assessment): 0.65 (0.49, 0.87)
Deaths ([4]; final analysis data cut-off): 48 n
PFS HR (95% CI), zanubrutinib over ibrutinib ([4]; in vivo): 0.62 (0.46, 0.84) and 0.62 (0.45, 0.84)
Treatment-failure event-free rate at 24 months ([4]; in vivo): 79.9%
24-month event-free rate, duration of response (95% CI) ([4]; investigator assessed): 79.5 (73.1-84.6) %
Median PFS ([4]; investigator assessed): not reached
Median duration of response (95% CI) ([4]; investigator assessed): had not yet been reached
PFS rate at 24 months ([4]; investigator assessed): 78.4%
Patients with disease progression or death ([4]; investigator assessed): 87 patients
Rate of partial response with lymphocytosis or better ([4]; investigator assessed, ITT): 89.9%
Best response CR or CRi [4, 8]: 16 (4.9) n (%)
Best response PD [4, 8]: 1 (0.3) n (%)
Best response PR or nPR [4, 8]: 244 (74.6) n (%)
Best response PR-L [4, 8]: 32 (9.8) n (%)
Best response SD [4, 8]: 25 (7.6) n (%)
Discontinue prior to first assessment, NA or NE [4, 8]: 9 (2.8) n (%)
ORR (95% CI) [4, 8]: 79.5* (74.7, 83.8) %
Best response CR or CRi [4, 9]: 23 (7.0) n (%)
Best response PD [4, 9]: 1 (0.3) n (%)
Best response PR or nPR [4, 9]: 250 (76.5) n (%)
Best response PR-L [4, 9]: 21 (6.4) n (%)
Best response SD [4, 9]: 23 (7.0) n (%)
Discontinue prior to first assessment, NA or NE [4, 9]: 9 (2.8) n (%)
ORR [4, 9]: 83.5%
Best response CR or CRi [4, 10]: 5 (6.7) n (%)
Best response PD [4, 10]: 0 n (%)
Best response PR or nPR [4, 10]: 56 (74.7) n (%)
Best response PR-L [4, 10]: 6 (8.0) n (%)
Best response SD [4, 10]: 5 (6.7) n (%)
Discontinue prior to first assessment, NA or NE [4, 10]: 3 (4.0) n (%)
ORR [4, 10]: 81.3%
Median duration of response (95% CI) ([4]; investigator assessed, listed as Zanubrutinib): NE (31.3, NE)
Duration of response events: death ([4]; investigator assessed): 20 (7.3) n (%)
Duration of response events: progressive disease ([4]; investigator assessed): 33 (12.1) n (%)
Duration of response: events ([4]; investigator assessed): 53 (19.4) n (%)
PD detected by decrease in platelet count ([4]; investigator assessment, ITT): 0
PD detected by increase in lymph nodes ([4]; investigator assessment, ITT): 40 (12.2)
PD detected by new enlarged lymph nodes ([4]; investigator assessment, ITT): 3 (0.9)
PD detected by new or increase in splenomegaly ([4]; investigator assessment, ITT): 8 (2.4)
PD detected by new symptomatic disease ([4]; investigator assessment, ITT): 3 (0.9)
Patients with disease transformation ([4]; investigator assessment, ITT): 5 (1.5)
Patients with progressive disease ([4]; investigator assessment, ITT): 54 (16.5)
PFS HR (95% CI), zanubrutinib over ibrutinib ([4]; per protocol population (N = 646), independent review): 0.64 (0.48, 0.85)
PFS HR (95% CI), zanubrutinib over ibrutinib ([4]; per protocol population (N = 646), investigator assessment): 0.64 (0.48, 0.85)
